# Measurements taken from patent US11666640B2, “Glucose oxidase compositions as a neonate anticonvulsant” (PENN STATE RESEARCH FOUNDATION, priority 2018, dated 2023).
# Entries after “also recorded” stand apart in the source; their conditions may differ.
# What was measured:
# [1] = target: T1, CLC-3 Cl− channels (Mus musculus, UniProt P51791); experiment: Voltage-dependent outward rectifying Cl− currents in CA3 pyramidal neurons of hippocampal slices; format: cell-based
# T1 construct: CA3 pyramidal neurons of hippocampal slices from neonatal mice; from tissue; host or cells: acute hippocampal slices (CA3 pyramidal neurons), C57BL/6 mice
# T1 sequence (P51791 1-818): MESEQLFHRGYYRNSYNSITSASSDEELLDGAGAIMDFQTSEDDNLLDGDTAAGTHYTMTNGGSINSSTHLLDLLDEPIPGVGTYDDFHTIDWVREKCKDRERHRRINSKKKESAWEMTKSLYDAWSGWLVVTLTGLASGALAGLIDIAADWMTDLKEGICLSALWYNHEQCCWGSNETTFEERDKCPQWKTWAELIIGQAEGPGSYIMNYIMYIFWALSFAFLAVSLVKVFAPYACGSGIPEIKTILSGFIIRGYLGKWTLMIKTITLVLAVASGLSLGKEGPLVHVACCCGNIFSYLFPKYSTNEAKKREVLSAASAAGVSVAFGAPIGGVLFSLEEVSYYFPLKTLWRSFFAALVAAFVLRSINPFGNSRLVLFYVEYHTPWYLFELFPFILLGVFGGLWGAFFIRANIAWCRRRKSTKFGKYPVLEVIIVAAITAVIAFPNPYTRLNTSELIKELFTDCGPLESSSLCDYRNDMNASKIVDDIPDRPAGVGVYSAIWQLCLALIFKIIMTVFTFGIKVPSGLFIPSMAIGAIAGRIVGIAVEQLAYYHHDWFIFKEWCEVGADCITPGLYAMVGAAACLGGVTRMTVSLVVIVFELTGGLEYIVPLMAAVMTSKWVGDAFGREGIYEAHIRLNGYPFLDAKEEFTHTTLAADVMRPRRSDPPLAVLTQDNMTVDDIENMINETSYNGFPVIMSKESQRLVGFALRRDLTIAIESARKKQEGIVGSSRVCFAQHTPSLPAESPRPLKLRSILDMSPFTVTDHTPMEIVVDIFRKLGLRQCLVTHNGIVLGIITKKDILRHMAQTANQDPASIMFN
# [2] = test system: KA-induced epileptic burst activities; experiment: KA-induced epileptic burst activity in adult mice, EEG recording; format: in vivo, mouse; details: KA 10 mg/kg i.p., NaGcA 2 g/kg i.p., sodium salt
# Method: To test the in vivo anti-epilepsy effects of gluconate in neonatal and adult rodents, P8-12 Sprague-Dawley rats or 2-month old male C57BL/6 mice were deeply anesthetized with pentobarbital sodium (50 mg/kg for neonatal rat and 100 mg/kg for adult mice, intraperitoneal injection). Two stainless steel screws (1 mm in diameter) were inserted in the skull above the cortex as EEG recording electrodes, one ground electrode as well as one reference electrode were located +1.8 mm anterior to bregma, ±0.5 mm lateral to the midline, and 1 mm below the cortical surface. All electrodes were attached to a micro-connector and fixed onto the skull with dental cement. After surgery, neonatal rats were returned to their mothers and allowed to recover for 2 days prior to subsequent EEG recording. The adult mice were single housed in order to prevent damage of the implanted electrodes and allowed to recover at least 5 days before EEG recording.
# [3] = test system: PTZ-induced seizure behavior; experiment: Seizure behavior test (Racine score) after PTZ; format: in vivo, mouse; details: PTZ 50 mg/kg i.p., adult mice
# Method: Male mice were divided into three groups: vehicle control group (saline, n=9), D-gluconic acid sodium at 1 g/kg group (n=10), and D-gluconic acid sodium at 2 g/kg group (n=11). PTZ (50 mg/kg) was intraperitoneally administered 1 hr after drug treatment. After PTZ injection, the behavior was monitored and observed for 1 hr. The seizure behavior was classified according to Racine Score: stage 0, no response; stage 1, facial twitching; stage 2, nod; stage 3, forelimb clonic, tail upright; stage 4, stand with forelimbs clonic; stage 5, stand and fall, jump, general clonic seizure, general clonic and tonic seizure or death. Racine et al., “Modification of seizure activity by electrical stimulation. 3. Mechanisms” Electroencephalogr Clin Neurophysiol 32:295-299 (1972).
# [4] = test system: GABAA-R reversal potential (EGABA); experiment: Gramicidin-perforated whole-cell recording of GABAA-R reversal potential (EGABA) in CA3 pyramidal neurons; format: cell-based, mouse
# Method: To further test this idea, the GABAA-R reversal potential (EGABA), which governs GABA excitatory versus inhibitory function, was directly measured using gramicidin-perforated whole-cell recordings in neonatal mouse brain slices (e.g., P8-P9). As expected, epileptiform activity induced a large depolarizing shift in EGABA after treating hippocampal slices with 0 Mg^2+ aCSF for 1 h (aCSF: −59.2±2.0 mV, n=13; 0 Mg^2+: −48.2±1.1 mV, n=10). FIG. 16D. Treatment with bumetanide (Bum, 10 μM), a specific blocker for NKCC1 at low concentrations, induced a hyperpolarizing shift in EGABA (blue line) as compared to a control EGABA (dashed line). […]. […] Kaila et al., “Cation-chloride cotransporters in neuronal development, plasticity and disease” Nature Reviews. Neuroscience 15:637-654 (2014); Dzhala et al., “NKCC1 transporter facilitates seizures in the developing brain” Nature Medicine 11:1205-1213 (2005); and Loscher et al., “Cation-chloride cotransporters NKCC1 and KCC2 as potential targets for novel antiepileptic and antiepileptogenic treatments” Neuropharmacology 69:62-74 (2013). […] FIG. 16E, yellow line; Bum, −68.0±1.7 mV (n=9); 0 Mg^2++Bum, −50.2±1.4 mV (n=9); (p<0.002).
# [5] = test system: GABAA-R current; experiment: GABAA-R current induced by isoguvacine before and after membrane depolarization (gramicidin-perforated recording); format: cell-based, mouse; details: isoguvacine 100 μM; depolarization 40 mV, 10 s; NaGcA 20 mM
# Method: To investigate the effect of such long-lasting epileptiform bursts on GABA function, gramicidin-perforated whole-cell recordings were performed to keep the intracellular Cl− intact in neonatal animals. GABAA receptor (GABAA-R) currents induced by the receptor agonist isoguvacine (100 μM, 50 ms) before and after a membrane-depolarizing shift (40 mV for 10 s) that mimics the epileptiform burst activity. […] FIGS. 16B and 16C.
# [6] = test system: KA induced neonatal seizure; experiment: KA-induced neonatal seizure, in vivo EEG recording; details: NaGcA 2 g/kg i.p. about 1 hr after KA, P10-12 rat; sodium salt
structure (smiles),measurement,setting,value
"O=C([O-])[C@H](O)[C@@H](O)[C@H](O)[C@H](O)CO.[Na+] [NaGcA, D-gluconic acid sodium salt]",Cl− currents after 0 Mg2+ treatment (inhibition),"[1]; 0 Mg2+ aCSF 1 hr, 20 mM NaGcA, sodium salt",remarkable inhibition; also recorded: significantly inhibited; also recorded: significantly blocked; also recorded: remarkably inhibited
same,Cl− current density after 0 Mg2+ treatment,"[1]; 0 Mg2+ aCSF 1 hr, recorded in 20 mM NaGcA, +90 mV",7.3±0.6 pA/pF
same,Cl− currents in neonatal CA3 pyramidal neurons,"[1]; 20 mM NaGcA, neonatal, sodium salt",dramatically reduced; also recorded: potent inhibitor; also recorded: remarkably inhibited
same,Cl− currents in CLC-3 KO mice,"[1]; CLC-3 KO mice, NaGcA, sodium salt",little inhibition; also recorded: no effect
same,Cl− current inhibition by gluconic acid with various counter ions,"[1]; P8-12 neonatal mice, 20 mM NaGcA, 10 mM Mg(GcA)2, 20 mM gluconic acid",equivalent Cl− current inhibition
same,Cl− currents in adult brains,"[1]; adult (P60-62), 20 mM NaGcA",no effect
same,KA-induced epileptic burst activities / EEG power in adult animals,[2]; listed as gluconate,less inhibition
same,KA-induced epileptic burst activities / EEG power in adult animals,[2],modest effect; also recorded: modestly inhibited
same,behavioral seizure score,[3],mild inhibitory effect
same,latency of seizure behavior (Racine score 3 and above),[3],dose-dependently prolonged
same,EGABA in 0 Mg2+ aCSF in CLC-3 KO mice,"[4]; CLC-3 KO mice, application of NaGcA",−56.6±2.4 mV
same,positive EGABA shift induced by 0 Mg2+ aCSF,[4]; neonatal CA3 neurons,completely abolishes
same,EGABA in 0 Mg2+ aCSF,"[4]; neonatal P8-P9, 0 Mg2+ aCSF, bumetanide 10 μM, VU0240551 10 μM, NaGcA 20 mM",−59.3±1.7 mV
same,EGABA in normal aCSF,"[4]; neonatal P8-P9, bumetanide 10 μM, VU0240551 10 μM, NaGcA 20 mM",−60.3±0.9 mV
same,depolarization-induced enhancement of GABAA-R current,[5],strongly inhibited
same,stable epileptic activity induced by KA (acute effect),[6],gradually reduced; also recorded: significantly reduced; also recorded: still suppressed seizure activity
